Patent EP3002287B1, “Thiochromeno[2,3-c]quinolin-12-one derivatives and their use as topoisomerase inhibitors” (National Defense Medical Center, priority 2014, dated 2016)

How the values were obtained:
Test in all cases: NCI in vitro 60-cell drug screen (SRB assay)
Assay type in all cases: cell-based
M14 = M14 (Melanoma); 10^-5 molar concentration; 48 hours
OVCAR-5 = OVCAR-5 (Ovarian cancer); 10^-5 molar concentration; 48 hours
UACC-257 = UACC-257 (Melanoma); 10^-5 molar concentration; 48 hours
SN12C = SN12C (Renal cancer); 10^-5 molar concentration; 48 hours
OVCAR-3 = OVCAR-3 (Ovarian cancer); 10^-5 molar concentration; 48 hours
HCC-2998 = HCC-2998 (Colon cancer); 10^-5 molar concentration; 48 hours
UACC-62 = UACC-62 (Melanoma); 10^-5 molar concentration; 48 hours
MDA-MB-231/ATCC = MDA-MB-231/ATCC (Breast cancer); 10^-5 molar concentration; 48 hours
NCI-H23 = NCI-H23 (Non-small cell lung cancer); 10^-5 molar concentration; 48 hours
DU-145 = DU-145 (Prostate cancer); 10^-5 molar concentration; 48 hours
MDA-MB-435 = MDA-MB-435 (Melanoma); 10^-5 molar concentration; 48 hours
RPMI-8226 = RPMI-8226 (Leukemia); 10^-5 molar concentration; 48 hours
IGROV1 = IGROV1 (Ovarian cancer); 10^-5 molar concentration; 48 hours
SNB-75 = SNB-75 (CNS cancer); 10^-5 molar concentration; 48 hours
COLO 205 = COLO 205 (Colon cancer); 10^-5 molar concentration; 48 hours
MOLT-4 = MOLT-4 (Leukemia); 10^-5 molar concentration; 48 hours
HCT-116 = HCT-116 (Colon cancer); 10^-5 molar concentration; 48 hours
SK-MEL-5 = SK-MEL-5 (Melanoma); 10^-5 molar concentration; 48 hours
CCRF-CEM = CCRF-CEM (Leukemia); 10^-5 molar concentration; 48 hours
LOX IMVI = LOX IMVI (Melanoma); 10^-5 molar concentration; 48 hours
CAKI-1 = CAKI-1 (Renal cancer); 10^-5 molar concentration; 48 hours
SK-MEL-28 = SK-MEL-28 (Melanoma); 10^-5 molar concentration; 48 hours
U251 = U251 (CNS cancer); 10^-5 molar concentration; 48 hours
SNB-19 = SNB-19 (CNS cancer); 10^-5 molar concentration; 48 hours
SF-295 = SF-295 (CNS cancer); 10^-5 molar concentration; 48 hours
HCT-15 = HCT-15 (Colon cancer); 10^-5 molar concentration; 48 hours
SW-620 = SW-620 (Colon cancer); 10^-5 molar concentration; 48 hours
MDA-MB-486 = MDA-MB-486 (Breast cancer); 10^-5 molar concentration; 48 hours
OVCAR-8 = OVCAR-8 (Ovarian cancer); 10^-5 molar concentration; 48 hours
HT29 = HT29 (Colon cancer); 10^-5 molar concentration; 48 hours
786-0 = 786-0 (Renal cancer); 10^-5 molar concentration; 48 hours
NCI-H522 = NCI-H522 (Non-small cell lung cancer); 10^-5 molar concentration; 48 hours
HOP-92 = HOP-92 (Non-small cell lung cancer); 10^-5 molar concentration; 48 hours
SF-268 = SF-268 (CNS cancer); 10^-5 molar concentration; 48 hours
NCI-H322M = NCI-H322M (Non-small cell lung cancer); 10^-5 molar concentration; 48 hours
MALME-3M = MALME-3M (Melanoma); 10^-5 molar concentration; 48 hours
T-47D = T-47D (Breast cancer); 10^-5 molar concentration; 48 hours

| Structure (SMILES) | Growth percent (M14) | Growth percent (OVCAR-5) | Growth percent (UACC-257) | Growth percent (SN12C) | Growth percent (OVCAR-3) | Growth percent (HCC-2998) | Growth percent (UACC-62) | Growth percent (MDA-MB-231/ATCC) | Growth percent (NCI-H23) | Growth percent (DU-145) | Growth percent (MDA-MB-435) | Growth percent (RPMI-8226) | Growth percent (IGROV1) | Growth percent (SNB-75) | Growth percent (COLO 205) | Growth percent (MOLT-4) | Growth percent (HCT-116) | Growth percent (SK-MEL-5) | Growth percent (CCRF-CEM) | Growth percent (LOX IMVI) | further results |
| --- | --- | --- | --- | --- | --- | --- | --- | --- | --- | --- | --- | --- | --- | --- | --- | --- | --- | --- | --- | --- | --- |
| O=c1c2ccc(Cl)cc2sc2c(Cl)nc3ccccc3c12 [Compound 3, 6,9-Dichloro-12H-thiochromeno[2,3-c]quinolin-12-one] | 106.18% | 100.07% | 104.47% | 95.92% | 111.27% | 123.28% | 89.69% | 84.28% | 85.12% | 114.27% | 100.64% | 100.19% | 96.06% | 77.88% | 112.15% | 98.04% | 102.27% | 97.42% | 93.12% | 90.53% | Growth percent (CAKI-1): 94.31%; Growth percent (SK-MEL-28): 101.80%; Growth percent (U251): 101.71%; Growth percent (SNB-19): 107.89%; Growth percent (SF-295): 90.26%; Growth percent (HCT-15): 102.28%; Growth percent (SW-620): 99.06%; Growth percent (MDA-MB-486): 98.57%; Growth percent (OVCAR-8): 101.62%; Growth percent (HT29): 99.73%; Growth percent (786-0): 105.25%; Growth percent (NCI-H522): 96.81%; Growth percent (HOP-92): 90.83%; Growth percent (SF-268): 109.60%; Growth percent (NCI-H322M): 100.12%; Growth percent (MALME-3M): 95.87%; Growth percent (T-47D): 110.10% |
| COc1nc2ccccc2c2c(=O)c3cc(Cl)ccc3sc12 [Compound 5, 10-Chloro-6-methoxy-12H-thiochromeno[2,3-c]quinolin-12-one] | 88.40% | 106.70% | 108.09% | 98.74% | 96.60% | 104.67% | 96.15% | 78.12% | 80.14% | 104.27% | 103.83% | 102.86% | 71.44% | 52.28% | 97.94% | 80.62% | 89.48% | 99.74% | 106.56% | 91.21% | Growth percent (SK-MEL-28): 112.31%; Growth percent (U251): 99.18%; Growth percent (SNB-19): 89.36%; Growth percent (SF-295): 86.35%; Growth percent (HCT-15): 107.99%; Growth percent (SW-620): 103.05%; Growth percent (MDA-MB-486): 103.54%; Growth percent (OVCAR-8): 91.82%; Growth percent (HT29): 102.69%; Growth percent (786-0): 99.15%; Growth percent (NCI-H522): 92.71%; Growth percent (HOP-92): 80.11%; Growth percent (SF-268): 94.12%; Growth percent (NCI-H322M): 90.77%; Growth percent (MALME-3M): 94.19%; Growth percent (T-47D): 68.46% |
| CN(C)c1nc2ccccc2c2c(=O)c3cc(Cl)ccc3sc12 [Compound 6, 10-Chloro-6-dimethylamino-12H-thiochromeno[2,3-c]quinolin-12-one] | 94.36% | 98.05% | 109.22% | 99.49% | 79.65% | 97.20% | 87.80% | 71.03% | 77.00% | 92.93% | 107.18% | 98.20% | 68.16% | 15.29% | 89.67% | 97.52% | 74.26% | 97.92% | 99.42% | 86.53% | Growth percent (SK-MEL-28): 96.60%; Growth percent (U251): 93.55%; Growth percent (SNB-19): 76.46%; Growth percent (SF-295): 48.82%; Growth percent (HCT-15): 89.27%; Growth percent (SW-620): 105.18%; Growth percent (MDA-MB-486): 29.91%; Growth percent (OVCAR-8): 68.53%; Growth percent (HT29): 87.73%; Growth percent (786-0): 87.00%; Growth percent (NCI-H522): 70.42%; Growth percent (HOP-92): 58.65%; Growth percent (SF-268): 77.86%; Growth percent (NCI-H322M): 83.74%; Growth percent (MALME-3M): 89.70%; Growth percent (T-47D): 37.66% |
| O=c1c2cc(Cl)ccc2sc2c(O)nc3ccccc3c12 [Compound 4, 10-Chloro-6-hydroxy-12H-thiochromeno[2,3-c]quinolin-12-one] | 94.76% | 111.17% | 108.36% | 101.14% | 106.37% | 101.48% | 105.86% | 81.80% | 88.96% | 99.80% | 103.18% | 100.99% | 78.35% | 66.63% | 93.69% | 100.41% | 86.20% | 100.69% | 107.78% | 92.07% | Growth percent (SK-MEL-28): 116.59%; Growth percent (U251): 101.85%; Growth percent (SNB-19): 101.37%; Growth percent (SF-295): 99.93%; Growth percent (HCT-15): 98.11%; Growth percent (SW-620): 101.39%; Growth percent (MDA-MB-486): 100.33%; Growth percent (OVCAR-8): 100.55%; Growth percent (HT29): 96.78%; Growth percent (786-0): 99.76%; Growth percent (NCI-H522): 86.60%; Growth percent (HOP-92): 93.13%; Growth percent (SF-268): 95.26%; Growth percent (NCI-H322M): 90.87%; Growth percent (MALME-3M): 93.26%; Growth percent (T-47D): 77.89% |
